Laboratory results taken from patent US12389911B2, “Benzimidazole compound or salt thereof, agricultural and horticultural insecticidal and acaricidal agent containing said compound, and method for using same” (NIHON NOHYAKU CO., LTD., priority 2019, dated 2025).

Test system: Two-spotted spider mite (Tetranychus urticae)
Assay: Acaricidal action on two-spotted spider mite (kidney bean leaf disk spray)
Assay type: in vivo
Conditions: 500 ppm, adult females, 25° C., two days after treatment
Procedure: Acaricidal Action on Two-Spotted Spider Mite (Tetranychus urticae)
Leaf disk having a diameter of 2 cm was prepared by leaves of kidney bean, and the leaf disk was placed on the wetted filter paper. Adult hens of two-spotted spider mite were inoculated on the wetted filter paper, and then 50 ml of an agrochemical dispersion, prepared by diluting a formulation containing the benzimidazole compound represented by the general formula (1) of the present invention or salt thereof as an active ingredient to adjust each of the concentrations to 500 ppm, was sprayed on turntable uniformly. After the spraying, it was allowed to stand in a thermostatic chamber at 25° C. Two days after the treatment of an agrochemical dispersion, the dead mites were counted, the corrected mortality rate was calculated according to the formula shown below, and the acaricidal efficacy was evaluated according to the criteria of Test Example 2. This test was conducted in duplicate using 10 adult hens of two-spotted spider per plot. Corrected mortality(%)=(Number of dead mites in a non-treatment plot−Number of dead mites in a treatment plot)/(Number of dead mites in a non-treatment plot)×100 [Expression 4]

SMILES: CCS(=O)(=O)n1c(-n2cc(C(=O)OC)c(C(=O)OC)c2)nc2ccccc21 [Compound 7-6]
- acaricidal efficacy (corrected mortality rate), activity level: D or higher

SMILES: CCS(=O)(=O)n1c(-n2cc(C(=O)OC(C)(C)C)c(C=C(C)C)n2)nc2ccccc21 [Compound 2-86]
- acaricidal efficacy (corrected mortality rate), activity level: D or higher

SMILES: CCS(=O)(=O)n1c(-n2cc(C(=O)OC(C)(C)C)c(OCC(F)(F)C(F)(F)F)n2)nc2ccccc21 [Compound 2-52]
- acaricidal efficacy (corrected mortality rate), activity level: D or higher

SMILES: CCS(=O)(=O)n1c(-n2cc(Br)c(OC(F)(F)C(=O)N(C)C)n2)nc2ccccc21 [Compound 2-136]
- acaricidal efficacy (corrected mortality rate), activity level: D or higher

SMILES: CCS(=O)(=O)n1c(-n2ccc(C(=O)OC(C)(C)C)c2)nc2ccccc21 [Compound 7-1]
- acaricidal efficacy (corrected mortality rate), activity level: D or higher

SMILES: CCS(=O)(=O)n1c(-n2cc(CCc3ccccc3)c(C#N)n2)nc2ccccc21 [Compound 2-109]
- acaricidal efficacy (corrected mortality rate), activity level: D or higher

SMILES: CCS(=O)(=O)n1c(-n2cc(C(=O)OC(C)(C)C)c(CCc3ccccc3)n2)nc2ccccc21 [Compound 2-89]
- acaricidal efficacy (corrected mortality rate), activity level: D or higher

SMILES: C#CCOc1nn(-c2nc3ccccc3n2S(=O)(=O)CC)cc1C(=O)OC(C)(C)C [Compound 2-92]
- acaricidal efficacy (corrected mortality rate), activity level: D or higher

SMILES: CCS(=O)(=O)n1c(-n2cc(S(=O)(=O)C(C)C)c(C(F)(F)F)n2)nc2ccccc21 [Compound 2-56]
- acaricidal efficacy (corrected mortality rate), activity level: D or higher

SMILES: CCS(=O)(=O)n1c(-n2cnc(C(=O)OC(C)(C)C)c2)nc2ccccc21 [Compound 1-33]
- acaricidal efficacy (corrected mortality rate), activity level: D or higher

SMILES: CCCCCc1cn(-c2nc3ccccc3n2S(=O)(=O)CC)cn1 [Compound 1-2]
- acaricidal efficacy (corrected mortality rate), activity level: D or higher

SMILES: CCS(=O)(=O)n1c(-n2cc(C(=O)OC(C)(C)C)c(C#Cc3ccccc3)n2)nc2ccccc21 [Compound 2-88]
- acaricidal efficacy (corrected mortality rate), activity level: D or higher

SMILES: CCS(=O)(=O)n1c(-n2cc(C#Cc3ccccn3)c(C(F)(F)F)n2)nc2ccccc21 [Compound 2-118]
- acaricidal efficacy (corrected mortality rate), activity level: D or higher

SMILES: CCS(=O)(=O)n1c(-n2cc(C#CCOC(=O)C(C)(C)C)c(C(F)(F)F)n2)nc2ccccc21 [Compound 2-132]
- acaricidal efficacy (corrected mortality rate), activity level: D or higher

SMILES: CCS(=O)(=O)n1c(-n2nc(C(F)(F)F)c(Br)c2C)nc2ccccc21 [Compound 2-18]
- acaricidal efficacy (corrected mortality rate), activity level: D or higher

SMILES: CCCCOc1nn(-c2nc3ccccc3n2S(=O)(=O)CC)cc1Br [Compound 2-37]
- acaricidal efficacy (corrected mortality rate), activity level: D or higher

SMILES: CCS(=O)(=O)n1c(-n2ccc(OCCCC(=O)OC(C)(C)C)n2)nc2ccccc21 [Compound 2-103]
- acaricidal efficacy (corrected mortality rate), activity level: D or higher

SMILES: CCS(=O)(=O)n1c(-n2cc(C(=O)OC)c(C(C)(C)C)n2)nc2ccccc21 [Compound 2-79]
- acaricidal efficacy (corrected mortality rate), activity level: D or higher

SMILES: CCS(=O)(=O)n1c(-n2cnc(C(F)(F)C(F)(F)C(F)(F)C(F)(F)C(F)(F)C(F)(F)F)c2)nc2ccccc21 [Compound 1-28]
- acaricidal efficacy (corrected mortality rate), activity level: D or higher

SMILES: CCS(=O)(=O)n1c(-n2cc(C(=O)OC(C)(C)C)c(OCC(F)(F)C(F)F)n2)nc2ccccc21 [Compound 2-78]
- acaricidal efficacy (corrected mortality rate), activity level: D or higher

SMILES: CCS(=O)(=O)n1c(-n2cc(C#Cc3ccccc3)c(C(=O)OC(C)(C)C)n2)nc2ccccc21 [Compound 2-106]
- acaricidal efficacy (corrected mortality rate), activity level: D or higher

SMILES: CCS(=O)(=O)n1c(-n2cc(C(=O)OC(C)(C)C)c(CCC3CC3)n2)nc2ccccc21 [Compound 2-84]
- acaricidal efficacy (corrected mortality rate), activity level: D or higher

SMILES: CCS(=O)(=O)n1c(-n2cc(CCC3CC3)c(C(F)(F)F)n2)nc2ccccc21 [Compound 2-126]
- acaricidal efficacy (corrected mortality rate), activity level: D or higher

SMILES: CCS(=O)(=O)n1c(-n2cc(C#CCOCC(F)(F)F)c(C(F)(F)F)n2)nc2ccccc21 [Compound 2-138]
- acaricidal efficacy (corrected mortality rate), activity level: D or higher

SMILES: CCS(=O)(=O)n1c(-n2cc(C(=O)OC(C)(C)C)c(C(C)C)n2)nc2ccccc21 [Compound 2-57]
- acaricidal efficacy (corrected mortality rate), activity level: D or higher

SMILES: CCS(=O)(=O)n1c(-n2cc(C(=O)SC(C)(C)C)c(C(F)(F)F)n2)nc2ccccc21 [Compound 2-31]
- acaricidal efficacy (corrected mortality rate), activity level: D or higher

SMILES: CCS(=O)(=O)n1c(-n2cc(C(=O)OC(C)(C)C)c(CC(C)C)n2)nc2ccccc21 [Compound 2-87]
- acaricidal efficacy (corrected mortality rate), activity level: D or higher

SMILES: CCS(=O)(=O)n1c(-n2cc(C(=O)OC(C)(C)C)c(C(C)(C)C)n2)nc2ccccc21 [Compound 2-58]
- acaricidal efficacy (corrected mortality rate), activity level: D or higher

SMILES: CCS(=O)(=O)n1c(-n2cc(C(=O)CC(C)C)c(CC(C)C)n2)nc2ccccc21 [Compound 2-142]
- acaricidal efficacy (corrected mortality rate), activity level: D or higher

SMILES: CCS(=O)(=O)n1c(-n2cc(C#CC3CC3)c(C(F)(F)F)n2)nc2ccccc21 [Compound 2-123]
- acaricidal efficacy (corrected mortality rate), activity level: D or higher

SMILES: CCS(=O)(=O)n1c(-n2cc(Cl)c(C(=O)OC(C)(C)C)n2)nc2ccccc21 [Compound 2-44]
- acaricidal efficacy (corrected mortality rate), activity level: D or higher

SMILES: CCS(=O)(=O)n1c(-n2cc(C(=O)OC(C)(C)C)c(OC(F)F)n2)nc2ccccc21 [Compound 2-139]
- acaricidal efficacy (corrected mortality rate), activity level: D or higher

SMILES: CCS(=O)(=O)n1c(-n2cc(Cc3ccccc3)c(C(F)(F)F)n2)nc2ccccc21 [Compound 2-22]
- acaricidal efficacy (corrected mortality rate), activity level: D or higher

SMILES: CCS(=O)(=O)n1c(-n2cc(CCC(=O)OC(C)(C)C)c(OCC(F)(F)F)n2)nc2ccccc21 [Compound 2-102]
- acaricidal efficacy (corrected mortality rate), activity level: D or higher

SMILES: CCS(=O)(=O)n1c(-n2cnc(COc3ccc(C(F)(F)F)cc3)c2)nc2ccccc21 [Compound 1-16]
- acaricidal efficacy (corrected mortality rate), activity level: D or higher

SMILES: CCS(=O)(=O)n1c(-n2cc(C(=O)N(C)OC)c(C(F)(F)F)n2)nc2ccccc21 [Compound 2-30]
- acaricidal efficacy (corrected mortality rate), activity level: D or higher

SMILES: CCOC(=O)c1cn(-c2nc3ccccc3n2S(=O)(=O)CC)nc1I [Compound 2-81]
- acaricidal efficacy (corrected mortality rate), activity level: D or higher

SMILES: CCS(=O)(=O)n1c(-n2cc(C(=O)OC(C)(C)C)c(I)n2)nc2ccccc21 [Compound 2-82]
- acaricidal efficacy (corrected mortality rate), activity level: D or higher

SMILES: CCS(=O)(=O)n1c(-n2cc(C(=O)OC(C)(C)C)c(Br)n2)nc2ccccc21 [Compound 2-48]
- acaricidal efficacy (corrected mortality rate), activity level: D or higher

SMILES: CCS(=O)(=O)n1c(-n2cc(CCC(C)(C)C)c(C(=O)OC(C)(C)C)n2)nc2ccccc21 [Compound 2-137]
- acaricidal efficacy (corrected mortality rate), activity level: D or higher

SMILES: CCS(=O)(=O)n1c(-n2cnc(C(F)(F)F)c2)nc2ccccc21 [Compound 1-21]
- acaricidal efficacy (corrected mortality rate), activity level: D or higher

SMILES: CCS(=O)(=O)n1c(-n2cc(S(=O)(=O)N(C)C)c(C(F)(F)F)n2)nc2ccccc21 [Compound 2-120]
- acaricidal efficacy (corrected mortality rate), activity level: D or higher

SMILES: CCS(=O)(=O)n1c(-n2cc(C(=O)NCC(F)(F)F)c(C(=O)NCC(F)(F)F)n2)nc2ccccc21 [Compound 2-95]
- acaricidal efficacy (corrected mortality rate), activity level: D or higher

SMILES: CCS(=O)(=O)n1c(-n2cc(C#CC(C)(C)C)c(C(=O)OC(C)(C)C)n2)nc2ccccc21 [Compound 2-133]
- acaricidal efficacy (corrected mortality rate), activity level: D or higher

SMILES: CCS(=O)(=O)n1c(-n2cc(/C=C/C(=O)OCC(C)(C)C)c(C(F)(F)F)n2)nc2ccccc21 [Compound 2-113]
- acaricidal efficacy (corrected mortality rate), activity level: D or higher

SMILES: CCCC#Cc1cn(-c2nc3ccccc3n2S(=O)(=O)CC)nc1C(F)(F)F [Compound 2-122]
- acaricidal efficacy (corrected mortality rate), activity level: D or higher

SMILES: CCS(=O)(=O)n1c(-n2cc(C#CC(C)(C)OC)c(C(F)(F)F)n2)nc2ccccc21 [Compound 2-129]
- acaricidal efficacy (corrected mortality rate), activity level: D or higher

SMILES: CCCCCCC#Cc1cnn(-c2nc3ccccc3n2S(=O)(=O)CC)c1 [Compound 2-7]
- acaricidal efficacy (corrected mortality rate), activity level: D or higher

SMILES: CCS(=O)(=O)n1c(-n2cnc(SC)n2)nc2ccccc21 [Compound 3-4]
- acaricidal efficacy (corrected mortality rate), activity level: D or higher

SMILES: CCOC(=O)c1cn(-c2nc3ccccc3n2S(=O)(=O)CC)nc1C(F)F [Compound 2-33]
- acaricidal efficacy (corrected mortality rate), activity level: D or higher

SMILES: CCS(=O)(=O)n1c(-n2cc(I)c(Br)n2)nc2ccccc21 [Compound 2-35]
- acaricidal efficacy (corrected mortality rate), activity level: D or higher

SMILES: CCS(=O)(=O)n1c(-n2cc(C(=O)NCC(F)(F)F)c(C(C)(C)C)n2)nc2ccccc21 [Compound 2-94]
- acaricidal efficacy (corrected mortality rate), activity level: D or higher

SMILES: CCS(=O)(=O)n1c(-n2cc(C(=O)OC(C)(C)C)c(OCC(F)(F)F)n2)nc2ccccc21 [Compound 2-76]
- acaricidal efficacy (corrected mortality rate), activity level: D or higher

SMILES: CCCOc1nn(-c2nc3ccccc3n2S(=O)(=O)CC)cc1C(=O)OC(C)(C)C [Compound 2-74]
- acaricidal efficacy (corrected mortality rate), activity level: D or higher

SMILES: CCOC(=O)/C=C/c1ccn(-c2nc3ccccc3n2S(=O)(=O)CC)n1 [Compound 2-36]
- acaricidal efficacy (corrected mortality rate), activity level: D or higher

SMILES: CCS(=O)(=O)n1c(-n2cc(I)c(C(F)(F)F)n2)nc2ccccc21 [Compound 2-16]
- acaricidal efficacy (corrected mortality rate), activity level: D or higher

SMILES: CCS(=O)(=O)n1c(-n2cc(/C=C/C(=O)OCc3ccc(C(F)(F)F)cc3)c(C(F)(F)F)n2)nc2ccccc21 [Compound 2-115]
- acaricidal efficacy (corrected mortality rate), activity level: D or higher
